# Measurements taken from PubChem BioAssay AID1918939 (Molecular Pharmacology Branch, DTP, NCI, 2023).
# Values joined by “and” are separate entries in the source; they are usually repeats but may differ in a detail not shown here. Equal values may be shown once.
# Test system: 653999-131-R-J2-PDC complex spheroid viability
# Assay: Anticancer human tumor 653999-131-R-J2-PDC patient-derived lung adenocarcinoma cell line growth inhibition
# Details: for viability, T/C: stronger effect = lower value; for IC50: curve of compound
# Excerpt: Multicellular complex tumor spheroid response to LSD1 Inhibitor Iadademstat in combination with a variety of drugs and investigational agents in selected tumor cell lines
# The current study was undertaken to assess response to LSD1 inhibitors in combination with standard-of-care drugs and investigational agents in solid tumor complex spheroid models as well as in the K-562 leukemia. Complex spheroids include a stromal component modeled by human endothelial cells (HUVEC) and fibroblasts modeled by human mesenchymal stem cells (MSCs). The concentration ranges selected for each drug and investigational agent were based upon clinically achievable concentrations if the clinical Cmax of the agent was known.
# Compounds. The drugs and investigational agents used in this study are listed on Table 1. All of the agents used, including staurosporine (NSC755774) and gemcitabine (NSC613327), were obtained from the Developmental Therapeutics Program, NCI. FDA-approved anticancer drugs are available from the NCI at http://dtp.nci.nih.gov/branches/dscb/oncology_drugset_explanation.html. Drugs and investigational agents were >95% pure by proton nuclear magnetic resonance (NMR) and liquid chromatography/mass spectrometry (LC/MS). Stock solutions were prepared at 400x in DMSO, stored at -70 degrees C, and diluted in fresh medium prior to their use. The final concentration of DMSO in cell culture wells never exceeded 0.25% (v/v). The FDA-approved anticancer drug set is available from the Developmental Therapeutics Program at https://dtp.cancer.gov/organization/dscb/obtaining/available_plates.htm. All drugs and investigational agents were tested over a range starting from a high concentration at or near the clinical Cmax and decreasing in half-log increments. If the clinical Cmax for an agent had not been determined, the highest concentration tested was 10 microM.
# Cell Lines. The patient-derived cancer cell (PDC) lines: 292921-168-R-J2-PDC, K24384-001-R-PDC, and 521955-158-R2-J5-PDC pancreatic carcinomas, 556581-035-R-J1 ovarian carcinoma, 324938-238-R-J1-PDC, 855422-203-R-J1-PDC and 883617-216-R-J1-PDC urothelial bladder carcinomas, 743489-274-T-PDC renal cell carcinoma, 138582-R-J1 Merkel cell tumor, K60290-347-R-J1 and K57222-313-R-J1-PDC glioblastomas, 653999-131-R-J2-PDC, LG0703-F948-PDC, and 349418-098-R-PDC non-small cell lung carcinomas, 885512-296-R-J2-PDC, 171881-019-R-J1-PDC breast carcinomas and 186277-243-T-J2-PDC and 233499-124-R-J2-PDC colon carcinomas were obtained from the NCI Patient-Derived Models Repository (PDMR, https://pdmr.cancer.gov). The established cell lines NCI/ADR-RES (RRID:CVCL_14520 and OVCAR-5 (RRID:CVCL_1628) ovarian carcinomas, 786-O (RRID:CVCL_1051) and A498 (RRID:CVCL_A498) renal cell carcinoma, NCI-H211 (ATCC, cat. CRL-5824; RRID:CVCL_1529), NCI-H196 (ATCC, cat. CRL-5823, RRID:CVCL_1509), SW 1271 (ATCC, cat. CRL-2177, RRID:CVCL_1716) and NCI-H1876 (ATCC, cat. CRL-5902, RRID:CVCL_1503) small cell lung carcinomas, MDA-MB-231 (RRID:CVCL_0062) and MDA-MB-468 (RRID:CVCL_0419)breast carcinomas (10-12). Pooled donor human umbilical vein endothelial cells (HUVEC, Lonza, cat. CC-2519) and human mesenchymal stem cells (hMSC, Lonza, cat. PT-2501) were purchased from Lonza (Walkersville, MD).
# Cell Culture. All cells were maintained in an incubator at 37 degrees C and 5% CO2 with 95% humidity. The PDC lines were cultured according to standard operating procedures established by the NCI PDMR (https://pdmr.cancer.gov). Briefly all PDCs were thawed and cultured in Matrigel-coated flasks prepared with a working solution of 1X Ham's F-12 nutrient mix, without supplementation (Invitrogen, Waltham, MA, cat. 11765054), 100 U/mL penicillin-streptomycin (Invitrogen, cat. 15140122), and 2.5% Matrigel (Corning Inc., Corning, NY, cat. 354248) for the first three passages. […]
# 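Further: spheroids exposed to agents for seven days before readout.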
IC50,SMILES,"viability, T/C (compound 0.000316 µM)","viability, T/C (compound 0.001 µM)","viability, T/C (compound 0.00316 µM)","viability, T/C (compound 0.01 µM)","viability, T/C (compound 0.0316 µM)","viability, T/C (compound 0.1 µM)","viability, T/C (compound 0.316 µM)","viability, T/C (compound 1 µM)","viability, T/C (compound 3.16 µM)","viability, T/C (compound 10 µM)","viability, T/C (compound 0.00949 µM)","viability, T/C (compound 0.03 µM)","viability, T/C (compound 0.0949 µM)","viability, T/C (compound 0.3 µM)","viability, T/C (compound 0.949 µM)","viability, T/C (compound 3 µM)","viability, T/C (compound 0.000949 µM)","viability, T/C (compound 0.003 µM)"
2.17 nM and 0.852 nM,CC(C)CC(NC(=O)C(Cc1ccccc1)NC(=O)c1cnccn1)B(O)O (configuration not stated),114% and 119%,103% and 38.1%,23.9% and 13.2%,1.83% and 5.29%,2.67% and 1.3%,0.76% and 1.16%,,,,,,,,,,,,
13.4 nM and 19.9 nM,CC(C)CC(NC(=O)CNC(=O)c1cc(Cl)ccc1Cl)B1OC(=O)CC(CC(=O)O)(C(=O)O)O1 (configuration not stated),101% and 110%,108% and 115%,92.6% and 107%,56.9% and 74.5%,25.3% and 34.1%,5.14% and 18.5%,,,,,,,,,,,,
> 10000 nM,CC(C)c1c(-c2ccccc2)nc2c(C#N)c[nH]n2c1=O,,,,,98.4% and 88.9%,107% and 94.6%,108% and 93.6%,116% and 98.2%,109% and 88.9%,94.7% and 88.9%,,,,,,,,
> 10000 nM and 6320 nM,CC1(C)CCC(CN2CCN(c3ccc(C(=O)NS(=O)(=O)c4ccc(NCC5CCOCC5)c([N+](=O)[O-])c4)c(Oc4cnc5[nH]ccc5c4)c3)CC2)=C(c2ccc(Cl)cc2)C1,,,,,92.8% and 101%,106% and 102%,97% and 104%,83.8% and 97.2%,92.2% and 85.6%,60.5% and 26.7%,,,,,,,,
18.8 nM and 18.2 nM,CC1COCCN1c1cc(-c2ccnn2C)c2ccnc(-c3ccn[nH]3)c2n1 (configuration not stated),,,81.7% and 58.4%,66.4% and 56.5%,36.3% and 41.4%,31.9% and 35.9%,29.8% and 45.5%,30.5% and 53.4%,,,,,,,,,,
1810 nM and > 10000 nM,CC1COCCN1c1cc(C2(S(C)(=N)=O)CC2)nc(-c2ccnc3[nH]ccc23)n1 (configuration not stated),,,,,107% and 106%,85.1% and 117%,79.9% and 107%,57.8% and 84.8%,38.3% and 58.8%,37.8% and 56.7%,,,,,,,,
> 3000 nM,CCN(c1cc(-c2ccc(CN3CCOCC3)cc2)cc(C(=O)NCc2c(C)cc(C)[nH]c2=O)c1C)C1CCOCC1,,,,,,,,,,,91.4% and 104%,96.6% and 104%,103%,97.3% and 101%,91.9% and 89.5%,92.6% and 92%,,
7.34 nM and 15.4 nM,CC[C@@]1(O)C(=O)OCc2c1cc1n(c2=O)Cc2cc3c(CN(C)C)c(O)ccc3nc2-1,108% and 99%,88.5% and 100%,66% and 83.8%,41.8% and 55.4%,34.3% and 41.5%,22.4% and 29.9%,,,,,,,,,,,,
< 0.949 nM,CCc1c2c(nc3ccc(O)cc13)-c1cc3c(c(=O)n1C2)COC(=O)[C@]3(O)CC,,,,,,,,,,,11.9% and 12.5%,7.76% and 6.48%,5.86% and 7.35%,5.31% and 11.3%,,,25.8% and 33.6%,18.4% and 20.9%
230 nM and 199 nM,COc1cc(C2c3cc4c(cc3C(OC3OC5COC(C)OC5C(O)C3O)C3COC(=O)C23)OCO4)cc(OC)c1O (configuration not stated),,,,,,,,,,,80.5% and 89.5%,76.5% and 74.9%,64.3% and 57.3%,42.8% and 45.1%,37.4% and 36.7%,25.3% and 27.8%,,
> 1000 nM,COc1cc(Nc2ncc3c(n2)-c2ccc(Cl)cc2C(c2c(F)cccc2OC)=NC3)ccc1C(=O)O,,,96.9% and 78.1%,90.6% and 74%,68.8% and 68.2%,70% and 73.6%,73.4% and 78%,68.2% and 64.2%,,,,,,,,,,
